Data reported in patent publication US20260022142A1, “MACROCYCLIC IMMUNOMODULATORS” (Bristol-Myers Squibb Company, priority 2022, published 2026).
pIC50: −log10 of the molar value. Numbered stars: 1 amine (or outer) side, 2 acyl side, 3 side chain; on linkers, the order of the positions; unused ones are H or OH. Bridge positions count the residues as written; N and C are the ends. Square brackets hold non-standard residues; d marks the D form. Peptide text beside a SMILES is read from it. * marks the point of attachment. ξ: configuration not given here. Phe(4-COOH) = N[C@@H](Cc1ccc(C(=O)O)cc1)C(=O)O; Bip = N[C@@H](Cc1ccc(-c2ccccc2)cc1)C(=O)O; Phe(3-Me) = Cc1cccc(C[C@H](N)C(=O)O)c1; βAsp = O=C(O)[C@H](CC(=O)[*:2])N[*:1]; NH(CH2)12COOH = O=C(O)CCCCCCCCCCCCN*; Val(3-OH) = CC(C)(O)[C@H](N)C(=O)O; 4Pal = N[C@@H](Cc1ccncc1)C(=O)O; Cha = N[C@@H](CC1CCCCC1)C(=O)O; Cit = NC(=O)NCCC[C@H](N)C(=O)O; Ile(3ξ) = CCC(C)[C@H](N)C(=O)O; aThr = C[C@H](O)[C@H](N)C(=O)O; Thr(3ξ) = CC(O)[C@H](N)C(=O)O; 12Ado = NCCCCCCCCCCCC(=O)O; dNle = CCCC[C@@H](N)C(=O)O; Carboxymethyl = O=C(O)C*; Orn = NCCC[C@H](N)C(=O)O; Aun = NCCCCCCCCCCC(=O)O; Dab = NCC[C@H](N)C(=O)O; Nva = CCC[C@H](N)C(=O)O; Dap = NC[C@H](N)C(=O)O; AEEA = NCCOCCOCC(=O)O; ξC = NC(CS)C(=O)O

Target: T1, PD-1/PD-L1 interaction (PE-labeled human PD-L1-Ig binding to Jurkat cell line over-expressing human PD-1) (Homo sapiens, UniProt Q15116)
T1 construct: expressed in transfected cells; host or cells: Jurkat
T1 sequence (Q15116 25-288): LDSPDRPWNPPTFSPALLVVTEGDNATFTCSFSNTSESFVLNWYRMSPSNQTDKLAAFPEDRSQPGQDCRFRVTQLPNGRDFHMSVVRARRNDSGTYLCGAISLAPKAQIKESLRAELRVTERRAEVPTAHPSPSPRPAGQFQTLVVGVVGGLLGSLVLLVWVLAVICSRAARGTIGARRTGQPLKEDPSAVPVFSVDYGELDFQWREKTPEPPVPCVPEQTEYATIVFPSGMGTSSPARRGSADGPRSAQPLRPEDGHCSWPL
Assay: Jurkat-PD-1 Cell Binding High-Content Screening Assay (CBA)
Format: cell-based
Details: Jurkat cell line over-expressing human PD-1; PE-labeled PD-L1-Ig 20 nM final; read-out: Jurkat hPD1-PDL1 IC50
Method in brief: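 First, compound is added to PD-1-expressing Jurkat cells in serum-containing DMEM and left 2 h at 37° C. Next, PE-conjugated PD-L1-Ig is introduced at 20 nM final concentration for 1 hour. Finally, cells are fixed in 4% paraformaldehyde with Hoechst 33342, washed and imaged.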

| pIC50 | SMILES |
| --- | --- |
| 7.77 | Cc1cccc(C[C@@H]2NC(=O)[C@H](CC(=O)O)NC(=O)[C@H](Cc3ccc(OCC(=O)O)cc3)NC(=O)[C@H](C(C)O)NC(=O)CSC[C@@H](C(=O)N[C@H](CC(N)=O)C(=O)NCCCCCCCCCCC(=O)O)NC(=O)[C@H](C(C)O)NC(=O)[C@H](C(C)C)NC(=O)[C@H](CC3CCCCC3)NC(=O)[C@H](CCN)NC(=O)[C@@H](CC(C)C)NC(=O)[C@H](CCCN)NC(=O)[C@H](C(C)C)NC(=O)[C@H](Cc3ccc(-c4ccccc4)cc3)NC(=O)[C@H](C(C)C)NC2=O)c1 (stereo partly drawn) [Compound 3436] ({CH2CO}-[Thr(3ξ)]Y(Carboxymethyl)D[Phe(3-Me)]V[Bip]V[Orn][dL][Dab][Cha]V[Thr(3ξ)]C[dN][Aun]-OH; thioether N-14) |
| 7.61 | Cc1cccc(C[C@@H]2NC(=O)[C@H](CC(=O)O)NC(=O)[C@H](Cc3ccc(OCC(=O)O)cc3)NC(=O)[C@H](CN)NC(=O)CSC[C@@H](C(=O)N[C@@H](C)CC(=O)NCCCCCCCCCCC(=O)O)NC(=O)[C@H]([C@@H](C)O)NC(=O)[C@H](C(C)C)NC(=O)[C@H](CC3CCCCC3)NC(=O)[C@H](CCN)NC(=O)[C@@H](CC(C)C)NC(=O)[C@H](CCCN)NC(=O)[C@H](CCCNC(N)=O)NC(=O)[C@H](Cc3ccc(-c4ccccc4)cc3)NC(=O)[C@H](C(C)C)NC2=O)c1 [Compound 2619] |
| 7.22 | CC(C)C[C@H]1NC(=O)[C@H](CCCN)NC(=O)[C@H](Cc2ccc(O)cc2)NC(=O)[C@H](Cc2ccc(-c3ccccc3)cc2)NC(=O)[C@H](Cc2ccc(O)cc2)NC(=O)[C@H](Cc2c[nH]c3ccccc23)NC(=O)[C@H](CC(=O)O)NC(=O)[C@H](Cc2ccc(OCC(=O)O)cc2)NC(=O)[C@H](CN)NC(=O)CSC[C@@H](C(=O)N[C@@H](CCN)C(=O)NCCCCCCCCCCC(=O)O)NC(=O)[C@H](CCCCN)NC(=O)[C@H](Cc2ccc(O)cc2)NC(=O)[C@H](CC2CCCCC2)NC(=O)[C@H](CCN)NC1=O [Compound 2509] ({CH2CO}-[Dap]Y(Carboxymethyl)DWY[Bip]Y[Orn][dL][Dab][Cha]YKC[Dab][Aun]-OH; thioether N-14) |
| 7.38 | CC(C)C[C@H]1NC(=O)[C@H](CCCN)NC(=O)[C@H](Cc2ccc(O)cc2)NC(=O)[C@H](Cc2ccc(-c3ccccc3)cc2)NC(=O)[C@H](Cc2ccc(O)cc2)NC(=O)[C@H](Cc2c[nH]c3ccccc23)NC(=O)[C@H](CC(=O)O)NC(=O)[C@H](Cc2ccc(OCC(=O)O)cc2)NC(=O)[C@H](C(C)O)NC(=O)CSC[C@@H](C(=O)N[C@H](CC(N)=O)C(=O)NCCCCCCCCCCC(=O)O)NC(=O)[C@H](C(C)O)NC(=O)[C@H](C(C)C)NC(=O)[C@H](CC2CCCCC2)NC(=O)[C@H](CCN)NC1=O (stereo partly drawn) [Compound 3429] ({CH2CO}-[Thr(3ξ)]Y(Carboxymethyl)DWY[Bip]Y[Orn][dL][Dab][Cha]V[Thr(3ξ)]C[dN][Aun]-OH; thioether N-14) |
| 7.99 | CCCC[C@H]1NC(=O)[C@H](CCCN)NC(=O)[C@H](C(C)C)NC(=O)[C@H](Cc2ccc(-c3ccccc3)cc2)NC(=O)[C@H](C(C)C)NC(=O)[C@H](Cc2cccc(C)c2)NC(=O)[C@H](CC(=O)O)NC(=O)[C@H](Cc2ccc(OCC(=O)O)cc2)NC(=O)[C@H](CN)NC(=O)CSC[C@@H](C(=O)NCCOCCOCC(=O)N[C@@H](CCN)C(=O)NCCCCCCCCCCC(=O)O)NC(=O)[C@H](CCCN)NC(=O)[C@H](C(C)C)NC(=O)[C@H](CC2CCCCC2)NC(=O)[C@H](CCN)NC1=O [Compound 2676] ({CH2CO}-[Dap]Y(Carboxymethyl)D[Phe(3-Me)]V[Bip]V[Orn][dNle][Dab][Cha]V[Orn]C[AEEA][Dab][Aun]-OH; thioether N-14) |
| 8.17 | Cc1cccc(C[C@@H]2NC(=O)[C@H](CC(=O)O)NC(=O)[C@H](Cc3ccc(OCC(=O)O)cc3)NC(=O)[C@H](CN)NC(=O)CSC[C@@H](C(=O)NCCOCCOCC(=O)N[C@@H](CC(=O)NCCCCCCCCCCC(=O)O)C(=O)O)NC(=O)[C@H]([C@@H](C)O)NC(=O)[C@H](C(C)C)NC(=O)[C@H](CC3CCCCC3)NC(=O)[C@H](CCN)NC(=O)[C@@H](CC(C)C)NC(=O)[C@H](CCCN)NC(=O)[C@H](CCCNC(N)=O)NC(=O)[C@H](Cc3ccc(-c4ccccc4)cc3)NC(=O)[C@H](C(C)C)NC2=O)c1 [Compound 1031] ({CH2CO}-[Dap]Y(Carboxymethyl)D[Phe(3-Me)]V[Bip][Cit][Orn][dL][Dab][Cha]VTC[AEEA][βAsp][Aun]-OH; thioether N-14) |
| 7.77 | CC(C)C[C@H]1NC(=O)[C@H](CCCN)NC(=O)[C@H](C(C)C)NC(=O)[C@H](Cc2ccc(-c3ccccc3)cc2)NC(=O)[C@H](C(C)C)NC(=O)[C@H](Cc2c[nH]c3ccccc23)NC(=O)[C@H](CC(=O)O)NC(=O)[C@H](Cc2ccc(C(=O)O)cc2)NC(=O)[C@H](Cc2ccc(OCC(=O)O)cc2)NC(=O)CSC[C@@H](C(=O)NCC(=O)NCCOCCOCC(=O)N[C@@H](CCCN)C(=O)NCCCCCCCCCCCC(=O)O)NC(=O)[C@H](CO)NC(=O)[C@H](C(C)C)NC(=O)[C@H](CC2CCCCC2)NC(=O)[C@H](CCN)NC1=O [Compound 3180] ({CH2CO}-Y(Carboxymethyl)[Phe(4-COOH)]DWV[Bip]V[Orn][dL][Dab][Cha]VSCG[AEEA][Orn][12Ado]-OH; thioether N-14) |
| 7.51 | Cc1cccc(C[C@@H]2NC(=O)[C@H](CC(=O)O)NC(=O)[C@H](Cc3ccc(OCC(=O)O)cc3)NC(=O)[C@H](Cc3ccncc3)NC(=O)CSC[C@@H](C(=O)N[C@@H](CCN)C(=O)NCCOCCOCC(=O)NCCOCCOCC(=O)NCCCCCCCCCCC(=O)O)NC(=O)[C@H](Cc3cnc[nH]3)NC(=O)[C@H](C(C)C)NC(=O)[C@H](CC3CCCCC3)NC(=O)[C@H](CCN)NC(=O)[C@@H](CC(C)C)NC(=O)[C@H](CCCN)NC(=O)[C@H](Cc3ccc(C(=O)O)cc3)NC(=O)[C@H](Cc3ccc(-c4ccccc4)cc3)NC(=O)[C@H](Cc3ccc(C(=O)O)cc3)NC2=O)c1 [Compound 3766] ({CH2CO}-[4Pal]Y(Carboxymethyl)D[Phe(3-Me)][Phe(4-COOH)][Bip][Phe(4-COOH)][Orn][dL][Dab][Cha]VHC[Dab][AEEA][AEEA][Aun]-OH; thioether N-14) |
| 7.58 | CCC(C)[C@@H]1NC(=O)[C@H](Cc2ccc(-c3ccccc3)cc2)NC(=O)[C@H](C(C)C)NC(=O)[C@H](Cc2c[nH]c3ccccc23)NC(=O)[C@H](CC(=O)O)NC(=O)[C@H](Cc2ccc(OCC(=O)O)cc2)NC(=O)[C@H]([C@H](C)O)NC(=O)CSC[C@@H](C(=O)NCCOCCOCC(=O)N[C@@H](CCCCN)C(=O)NCCCCCCCCCCC(=O)O)NC(=O)[C@H](CO)NC(=O)[C@H](C(C)C)NC(=O)[C@H](CC(C)C)NC(=O)[C@H](CCN)NC(=O)[C@@H](CC(C)C)NC(=O)[C@H](CCCN)NC1=O (stereo partly drawn) [Compound 3083] ({CH2CO}-[aThr]Y(Carboxymethyl)DWV[Bip][Ile(3ξ)][Orn][dL][Dab]LVSC[AEEA]K[Aun]-OH; thioether N-14) |
| 7.45 | CC(C)C[C@H]1NC(=O)[C@H](CCCN)NC(=O)[C@H](C(C)C)NC(=O)[C@H](Cc2ccc(-c3ccccc3)cc2)NC(=O)[C@H](C(C)C)NC(=O)[C@H](Cc2c[nH]c3ccccc23)NC(=O)[C@H](CC(=O)O)NC(=O)[C@H](Cc2ccc(OCC(=O)O)cc2)NC(=O)[C@H](CN)NC(=O)CSCC(C(=O)N[C@H](CC(N)=O)C(=O)NCCCCCCCCCCC(=O)O)NC(=O)[C@H]([C@@H](C)O)NC(=O)[C@H](C(C)C)NC(=O)[C@H](CC2CCCCC2)NC(=O)[C@H](Cc2cnc[nH]2)NC1=O (stereo partly drawn) [Compound 1125] ({CH2CO}-[Dap]Y(Carboxymethyl)DWV[Bip]V[Orn][dL]H[Cha]VT[ξC][dN][Aun]-OH; thioether N-14) |
| 8.20 | Cc1cccc(C[C@@H]2NC(=O)[C@H](CC(=O)O)NC(=O)[C@H](Cc3ccc(OCC(=O)O)cc3)NC(=O)[C@H](C(C)O)NC(=O)CSC[C@@H](C(=O)NCCOCCOCC(=O)NCCCCCCCCCCC(=O)O)NC(=O)[C@H](CCCN)NC(=O)[C@H](C(C)C)NC(=O)[C@H](CC3CCCCC3)NC(=O)[C@H](CCN)NC(=O)[C@@H](CC(C)C)NC(=O)[C@H](CCN)NC(=O)[C@H](C(C)C)NC(=O)[C@H](Cc3ccc(-c4ccccc4)cc3)NC(=O)[C@H](C(C)C)NC2=O)c1 (stereo partly drawn) [Compound 3350] ({CH2CO}-[Thr(3ξ)]Y(Carboxymethyl)D[Phe(3-Me)]V[Bip]V[Dab][dL][Dab][Cha]V[Orn]C[AEEA][Aun]-OH; thioether N-14) |
| 7.95 | CCC[C@@H]1NC(=O)CSC[C@@H](C(=O)N[C@@H](CCN)C(=O)NCCOCCOCC(=O)NCCCCCCCCCCCCC(=O)O)NC(=O)[C@H](CO)NC(=O)[C@H](C(C)(C)O)NC(=O)[C@H](CC2CCCCC2)NC(=O)[C@H](CCN)NC(=O)[C@@H](CC(C)C)NC(=O)[C@H](CCCN)NC(=O)[C@H](Cc2ccc(OCC(=O)O)cc2)NC(=O)[C@H](Cc2ccc(-c3ccccc3)cc2)NC(=O)[C@H](Cc2ccc(OCC(=O)O)cc2)NC(=O)[C@H](Cc2cccc(C)c2)NC(=O)[C@H](CC(=O)O)NC(=O)[C@H](Cc2ccc(OCC(=O)O)cc2)NC1=O [Compound 2867] ({CH2CO}-[Nva]Y(Carboxymethyl)D[Phe(3-Me)]Y(Carboxymethyl)[Bip]Y(Carboxymethyl)[Orn][dL][Dab][Cha][Val(3-OH)]SC[Dab][AEEA]-{NH(CH2)12COOH}; thioether N-14) |
| 7.88 | CC(=O)NCCCC[C@@H]1NC(=O)[C@H](Cc2ccc(-c3ccccc3)cc2)NC(=O)[C@H](Cc2ccc(O)cc2)NC(=O)[C@H](Cc2cccc(C)c2)NC(=O)[C@H](CC(=O)O)NC(=O)[C@H](Cc2ccc(OCC(=O)O)cc2)NC(=O)[C@H](CCCNC(=N)N)NC(=O)CSC[C@@H](C(=O)N[C@H](CC(N)=O)C(=O)NCCCCCCCCCCC(=O)O)NC(=O)[C@H](C(C)O)NC(=O)[C@H](C(C)C)NC(=O)[C@H](CC2CCCCC2)NC(=O)[C@H](CCN)NC(=O)[C@@H](CC(C)C)NC(=O)[C@H](CCC(N)=O)NC1=O (stereo partly drawn) [Compound 3543] ({CH2CO}-RY(Carboxymethyl)D[Phe(3-Me)]Y[Bip]K(Ac)Q[dL][Dab][Cha]V[Thr(3ξ)]C[dN][Aun]-OH; thioether N-14) |
